Measured values taken from ChEMBL document CHEMBL1136094, “Novel, potent and selective cyclin D1/CDK4 inhibitors: indolo[6,7-a]pyrrolo[3,4-c]carbazoles” (Bioorg Med Chem Lett, 2003).

What was measured:
CaM kinase II = CaM kinase II (Homo sapiens, UniProt Q13557+Q13555+Q13554+Q9UQM7); experiment: Inhibitory activity against Calcium/calmodulin-dependent protein kinase type II; type: protein assay
[1] = target: Cyclin-dependent kinase 2/cyclin E (Homo sapiens, UniProt P24941); experiment: Inhibitory activity against Cyclin E-cyclin-dependent kinase 2 in enzymatic assay by measuring phosphorylation of RbING; type: protein-complex assay
[2] = target: T1, Cyclin-dependent kinase 4/cyclin D1 (Homo sapiens, UniProt P11802); experiment: Inhibitory activity against Cyclin D1-cyclin-dependent kinase 4 in enzymatic assay by measuring phosphorylation of Rb21; type: protein-complex assay
T1 sequence (P11802 whole entry): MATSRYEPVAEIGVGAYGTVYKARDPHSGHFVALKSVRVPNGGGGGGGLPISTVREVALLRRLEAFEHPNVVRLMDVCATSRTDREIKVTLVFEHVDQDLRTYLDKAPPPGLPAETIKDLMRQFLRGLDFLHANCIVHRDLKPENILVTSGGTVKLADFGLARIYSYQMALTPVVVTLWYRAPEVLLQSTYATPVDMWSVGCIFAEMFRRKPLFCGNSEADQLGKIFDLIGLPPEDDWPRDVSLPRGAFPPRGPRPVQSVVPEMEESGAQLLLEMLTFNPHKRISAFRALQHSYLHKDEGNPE
T1 sequence (P24385 whole entry, further chain): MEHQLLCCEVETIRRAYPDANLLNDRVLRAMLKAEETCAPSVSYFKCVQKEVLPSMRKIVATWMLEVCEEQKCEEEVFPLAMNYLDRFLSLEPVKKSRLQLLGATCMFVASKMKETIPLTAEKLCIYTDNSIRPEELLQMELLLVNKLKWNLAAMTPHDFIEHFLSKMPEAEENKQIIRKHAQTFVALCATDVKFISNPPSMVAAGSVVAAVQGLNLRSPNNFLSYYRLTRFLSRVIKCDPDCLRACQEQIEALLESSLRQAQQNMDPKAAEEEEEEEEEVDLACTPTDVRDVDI

[3] = target: T1, Cyclin-dependent kinase 4/cyclin D1; experiment: Inhibitory activity against Cyclin D1-cyclin-dependent kinase 4 in enzymatic assay by measuring phosphorylation of RbING; type: protein-complex assay
HCT-116 = experiment: In vitro antiproliferative activity against human carcinoma cell line HCT116 (colon); type: functional, cell-based
NCI-H460 = experiment: In vitro antiproliferative activity against human carcinoma cell line H460 (lung); type: functional, cell-based
[4] = target: cAMP-dependent protein kinase (PKA) (Homo sapiens, UniProt P22694+P17612+P22612); experiment: Inhibitory activity against Protein kinase A (Histone); type: protein assay

SMILES | IC50 (CaM kinase II) | IC50 [1] | IC50 [2] | IC50 [3] | IC50 (HCT-116) | IC50 (NCI-H460) | IC50 [4]
COc1ccc2c3c4c(c5c(ccc6ccn(C)c65)c3n(CCN3CCC[C@H]3CO)c2c1)C(=O)NC4=O | 6120 nM | 942 nM | 23 nM | 84 nM | 2690 nM | 3800 nM | > 20000 nM
COc1ccc2c3c4c(c5c(ccc6ccn(C)c65)c3n(CCO)c2c1)C(=O)NC4=O | – | 101 nM | 24 nM | 47 nM | 4070 nM | 1320 nM | 1620 nM
CCc1ccc2c(c1)[nH]c1c3ccc4ccn(C)c4c3c3c(c21)C(=O)NC3=O | – | – | 22 nM | 101 nM | 3510 nM | 7490 nM | > 20000 nM
Cn1ccc2ccc3c4[nH]c5cc(F)ccc5c4c4c(c3c21)C(=O)NC4=O | – | 9 nM | 11 nM | 38 nM | > 10000 nM | > 10000 nM | > 20000 nM
Cn1ccc2ccc3c4[nH]c5cccc(Br)c5c4c4c(c3c21)C(=O)NC4=O | – | – | 136 nM | 171 nM | 4710 nM | 3520 nM | > 20000 nM
Cn1ccc2ccc3c4[nH]c5ccc(Br)cc5c4c4c(c3c21)C(=O)NC4=O | – | – | – | > 2000 nM | – | – | –
Cn1ccc2ccc3c4[nH]c5cccc(F)c5c4c4c(c3c21)C(=O)NC4=O | – | > 2000 nM | 81 nM | 71 nM | > 2000 nM | > 10000 nM | > 20000 nM
Cc1ccc2[nH]c3c4ccc5ccn(C)c5c4c4c(c3c2c1)C(=O)NC4=O | – | 1070 nM | 407 nM | 393 nM | 2870 nM | 3350 nM | 4060 nM
Cn1ccc2ccc3c4[nH]c5c(CCN6CCC(O)CC6)cccc5c4c4c(c3c21)C(=O)NC4=O | 46 nM | 978 nM | 8 nM | 45 nM | 200 nM | 140 nM | 2990 nM
Cc1cc2ccn(C)c2c2c3c(c4c5ccccc5n(CCCO)c4c12)C(=O)NC3=O | – | – | – | 673 nM | 3850 nM | 4750 nM | –
Cn1ccc2ccc3c4[nH]c5cc(C#N)ccc5c4c4c(c3c21)C(=O)NC4=O | – | 10 nM | 11 nM | 29 nM | > 10000 nM | > 10000 nM | > 20000 nM
COc1ccc2c3c4c(c5c(ccc6ccn(C)c65)c3n(CCN3CCCCC3)c2c1)C(=O)NC4=O | > 20000 nM | 928 nM | 33 nM | 135 nM | 3740 nM | 2470 nM | > 20000 nM
Cn1ccc2ccc3c4[nH]c5ccc(C(F)(F)F)cc5c4c4c(c3c21)C(=O)NC4=O | – | – | – | > 2000 nM | 7040 nM | 7850 nM | –
Cn1ccc2ccc3c4[nH]c5cc(C(F)(F)F)ccc5c4c4c(c3c21)C(=O)NC4=O | – | 225 nM | 9 nM | 76 nM | > 10000 nM | 3510 nM | > 20000 nM
Cn1ccc2ccc3c4[nH]c5c(Br)cccc5c4c4c(c3c21)C(=O)NC4=O | – | – | – | 93 nM | 17100 nM | 13800 nM | –
Cc1cc2ccn(C)c2c2c3c(c4c5ccc(F)cc5[nH]c4c12)C(=O)NC3=O | – | 23 nM | 6 nM | 50 nM | 580 nM | 1020 nM | > 20000 nM
Cn1ccc2cc(F)c3c(c4c(c5c6ccccc6n(CCCO)c53)C(=O)NC4=O)c21 | – | – | 448 nM | 346 nM | 2390 nM | 2480 nM | –
COc1ccc2c3c4c(c5c(ccc6ccn(C)c65)c3n(CCCN3CCN(C)CC3)c2c1)C(=O)NC4=O | 11600 nM | 1230 nM | 14 nM | 95 nM | 450 nM | 900 nM | 2930 nM
O=C1NC(=O)c2c1c1c(ccc3cc[nH]c31)c1[nH]c3cc(O)ccc3c21 | – | 6 nM | 17 nM | 37 nM | 170 nM | 230 nM | 949 nM
COc1ccc2c(c1)[nH]c1c2c2c(c3c1c(C)cc1ccn(C)c13)C(=O)NC2=O | – | 57 nM | 7 nM | 42 nM | 1430 nM | 1300 nM | > 20000 nM
CCOc1ccc2c(c1)[nH]c1c3ccc4ccn(C)c4c3c3c(c21)C(=O)NC3=O | – | 324 nM | 10 nM | 44 nM | 2350 nM | 3200 nM | > 20000 nM
O=C1NC(=O)c2c1c1c(ccc3cc[nH]c31)c1c2c2ccccc2n1CCCO | – | 8 nM | 12 nM | 66 nM | 750 nM | 1070 nM | > 20000 nM

SMILES | IC50 (CaM kinase II) | IC50 [1] | IC50 [2] | IC50 [3] | IC50 (HCT-116) | IC50 (NCI-H460) | IC50 [4]
Cc1cc2ccn(C)c2c2c3c(c4c5ccc(C(F)(F)F)cc5[nH]c4c12)C(=O)NC3=O | – | > 2000 nM | 25 nM | 92 nM | 8780 nM | 2420 nM | > 20000 nM
Cn1ccc2ccc3c4[nH]c5cc(Br)ccc5c4c4c(c3c21)C(=O)NC4=O | – | 75 nM | < 13 nM | 38 nM | 1080 nM | 720 nM | > 20000 nM
CCn1ccc2ccc3c(c4c(c5c6ccccc6n(CCCO)c35)C(=O)NC4=O)c21 | – | 400 nM | 90 nM | 134 nM | 1200 nM | 1770 nM | 5310 nM
Cc1cc2ccn(C)c2c2c3c(c4c5ccccc5n(CCCCO)c4c12)C(=O)NC3=O | – | – | – | > 2000 nM | > 10000 nM | > 10000 nM | 11700 nM
Cc1cc2ccn(C)c2c2c3c(c4c5ccccc5[nH]c4c12)C(=O)NC3=O | – | 70 nM | 2 nM | 28 nM | 1980 nM | 2260 nM | > 20000 nM
Cn1ccc2ccc3c(c4c(c5c6ccccc6n(CCCO)c35)C(=O)NC4=O)c21 | – | 67 nM | 42 nM | 96 nM | 1360 nM | 1130 nM | > 2000 nM
COc1ccc2[nH]c3c4ccc5ccn(C)c5c4c4c(c3c2c1)C(=O)NC4=O | – | > 2000 nM | 680 nM | 519 nM | > 10000 nM | > 10000 nM | > 20000 nM
Cn1ccc2ccc3c4[nH]c5cccc(CO)c5c4c4c(c3c21)C(=O)NC4=O | – | > 2000 nM | 216 nM | 155 nM | > 10000 nM | > 10000 nM | > 20000 nM
CCn1ccc2ccc3c4[nH]c5ccccc5c4c4c(c3c21)C(=O)NC4=O | – | – | 19 nM | 59 nM | 4520 nM | > 10000 nM | > 2000 nM
COc1ccc2c(c1)[nH]c1c3ccc4cc[nH]c4c3c3c(c21)C(=O)NC3=O | – | 125 nM | 36 nM | 67 nM | 2160 nM | 1920 nM | 11400 nM
Cn1ccc2cc(F)c3c4[nH]c5ccccc5c4c4c(c3c21)C(=O)NC4=O | – | 86 nM | 16 nM | 67 nM | 3490 nM | 2900 nM | > 20000 nM
O=C1NC(=O)c2c1c1c3ccccc3[nH]c1c1[nH]c3ccccc3c21 [STAUROSPORINE AGLYCON] | – | 897 nM | – | 140 nM | 850 nM | 590 nM | –
O=C1NC(=O)c2c1c1c(ccc3cc[nH]c31)c1[nH]c3cc(OCc4ccccc4)ccc3c21 | – | – | 378 nM | 187 nM | > 10000 nM | > 10000 nM | –
Cc1ccc2c(c1)[nH]c1c3ccc4ccn(C)c4c3c3c(c21)C(=O)NC3=O | – | 320 nM | 18 nM | 48 nM | 3840 nM | 3410 nM | > 20000 nM
COc1cccc2c1[nH]c1c3ccc4ccn(C)c4c3c3c(c21)C(=O)NC3=O | – | > 2000 nM | 40 nM | 62 nM | 1000 nM | 2710 nM | > 20000 nM
Cn1ccc2ccc3c4[nH]c5ccc(F)cc5c4c4c(c3c21)C(=O)NC4=O | – | > 200 nM | 39 nM | 84 nM | > 10000 nM | > 10000 nM | > 20000 nM
O=C1NC(=O)c2c1c1c(ccc3cc[nH]c31)c1[nH]c3ccccc3c21 | – | 64 nM | 22 nM | 36 nM | 1440 nM | 1430 nM | > 2000 nM
Cc1cc2ccn(C)c2c2c3c(c4c5ccccc5n(C)c4c12)C(=O)NC3=O | – | 267 nM | 45 nM | 92 nM | 4700 nM | > 10000 nM | 3900 nM
COc1cccc2[nH]c3c4ccc5ccn(C)c5c4c4c(c3c12)C(=O)NC4=O | – | – | – | > 2000 nM | > 10000 nM | > 10000 nM | –
CN1CCN(CCCc2cccc3c2[nH]c2c4ccc5ccn(C)c5c4c4c(c32)C(=O)NC4=O)CC1 | 382 nM | 1670 nM | – | 52 nM | 1380 nM | 1480 nM | 16600 nM
Cn1ccc2ccc3c4[nH]c5c(CCCO)cccc5c4c4c(c3c21)C(=O)NC4=O | – | 558 nM | 40 nM | 168 nM | 3020 nM | 2350 nM | > 20000 nM
Cn1ccc2ccc3c4[nH]c5cc(OCc6ccccc6)ccc5c4c4c(c3c21)C(=O)NC4=O | – | 328 nM | 25 nM | 123 nM | 6520 nM | > 10000 nM | 3290 nM
